In patent publication US20190350940A1, “PLATINUM COMPOUNDS, COMPOSITIONS, AND USES THEREOF” (priority 2015, published 2019):
“And” between values parts separate entries of the source, which are not always exact repeats. Equal values may be shown once. “Also recorded” adds a separate entry of the source.

Key:
[1] = biological target: CYP3A4 (Homo sapiens, UniProt P08684); test: CYP inhibition, 3A4; assay type: in vitro ADME
[2] = Single dose intravenous dose range-finding toxicity study in Beagle dogs (Compound 8-TX-002); assay type: in vivo, dog; conditions: both sexes, Beagle, in vivo; single IV dose, dog
Protocol: (§1) This study (Compound 8-TX-002) was conducted to evaluate and characterize the acute toxicity and to determine an MTD of Compound 8 when administered once via IV injection to the dog, and to assist in dose selection for a subsequent dog cardiovascular study (Compound 8-TX-005). The test article, Compound 8, was formulated prior to dosing, as a solution in 5 mM citrate buffered saline (0.9% sodium chloride), pH about 4-4.5 at nominal concentrations of 1.2, 2.4, 4.0, and 4.8 mg/mL. Dose formulations were all within the acceptance criteria (+10% of target concentration) ranging from 92.1 to 99.8 percent of target concentration.
(§2) Groups of 2 animals each (1 male, 1 female) received Compound 8 at doses of 3, 6, 10, or 12 mg/kg. Assessment of toxicity was based on mortality, clinical observations, body weight, and qualitative food assessment; physical examinations; and clinical pathology. Toxicokinetic assessment was conducted for platinum concentration in the plasma and plasma ultrafiltrate.

[3] = test system: Beagle dogs; test: as above; assay type: in vivo, dog
Protocol: as §1, §2

[4] = test system: rat plasma; test: In vitro plasma protein binding, rat plasma (Compound 8-DMPK-008); assay type: in vitro ADME; conditions: incubation 10 minutes at 37° C.
[5] = test system: human plasma; test: In vitro plasma protein binding, human plasma (Compound 8-DMPK-008); assay type: in vitro ADME; conditions: incubation 10 minutes at 37° C.
[6] = biological target: CYP2C19 (Homo sapiens, UniProt P33261); test: CYP inhibition, 2C19; assay type: in vitro ADME
[7] = test system: male and female rats; test: Repeat-dose intravenous toxicity study in rats with a 3-week recovery period (Compound 8-TX-007); assay type: in vivo
Protocol: Groups of 30 animals (15/sex) each received vehicle control or Compound 8 9, 14, 19, or 6 mg/kg. Groups of 20 animals (10/sex) received Compound 8 9, 14, 19, or 6 mg/kg and 6 animals (3/sex) received vehicle control in the TK portion of the study.
Assessment of toxicity was based on mortality, clinical observations, functional observational battery evaluations, body weight, and food consumption and efficiency; ophthalmoscopic examinations; and clinical and anatomical pathology. RBC pellet analysis was conducted for total platinum content.
Toxicity and TK assessments were conducted for the test article and positive control.

[8] = test system: A2780 human ovarian cancer; test: A2780 ovarian xenograft model; assay type: in vivo, mouse; conditions: mouse, in vivo, 20 mg/kg
Protocol: The effect of Compound 8 on tumor growth inhibition (TGI) was evaluated in the A2780 human ovarian cancer nude mouse (female Crl:NU(NCr)-Foxn1^nu) xenograft model.

[9] = physchem; assay type: physicochemical; conditions: for solubility at 1 hr: pH 4, aqueous buffer, thermodynamic from solid, Saturated solubility
Protocol: The formulations were prepared by stirring at room temperature for 1 hr. They were protected from light to minimize the formation of the amine product (Impurity 1) during the formulation.
The drug product process begins by preparation of a chilled, solution of 2.5% mannitol and 5 mM citrate buffer (pH about 4-5) solution to which Compound 8 drug substance is added at concentration of 5 mg/mL. […] The bulk solution is filter (0.2 μm) sterilized, aseptically filled into vials, and lyophilized. To minimize Compound 8 degradation, the bulk solution is maintained chilled and protected from light during processing. Lyophilizing Compound 8 as a dry powder was selected as the best means to minimize hydrolysis during storage. Finally, filter sterilization was chosen as the most benign means to sterilize the drug product.

[10] = pH stability: acidifying agents versus citrate buffered saline; assay type: physicochemical; conditions: room temperature
Protocol: In order to determine whether a buffer would be required to maintain stability, two acidifying agents, hydrochloric acid and citric acid, were evaluated with respect to a control formulation in 5 mM citrate buffered saline. All vehicles were brought to a pH of 4 in saline and each formulation was made at 1 mg/ml concentration in each vehicle.

[11] = Vial selection: clear versus amber (light versus dark); assay type: physicochemical; conditions: 5 mM citrate buffer saline pH about 4, room temperature 24 hours
Protocol: To compare light versus dark conditions, Compound 8 was formulated in 5 mM citrate buffer saline at pH about 4 and placed into two separate vials (one clear and the other amber). The formulations were stored at room temperature for 24 hours and the amount of Impurity 1 and Impurity 2 was observed. From the FIGS. 4 and 5, it can be seen that exposing the Compound 8 solution to light in a clear vial caused an increase in the amount of Impurity 1 in comparison to the solution contained in an amber vial (˜10% Impurity 1 compared to ˜0.75% Impurity 1). […] Also, from these experiments it was concluded that the formation of Impurity 2 is not photosensitive but dependent upon the pH of the formulation.

[12] = test system: MIA Paca-2 human pancreatic adenocarcinoma; test: MIA Paca-2 pancreatic xenograft model; assay type: in vivo, mouse; conditions: mouse, in vivo, 10 mg/kg
[13] = biological target: CYP2C9 (Homo sapiens, UniProt P11712); test: CYP inhibition, 2C9; assay type: in vitro ADME
CYP2C9, sequence (P11712 whole entry): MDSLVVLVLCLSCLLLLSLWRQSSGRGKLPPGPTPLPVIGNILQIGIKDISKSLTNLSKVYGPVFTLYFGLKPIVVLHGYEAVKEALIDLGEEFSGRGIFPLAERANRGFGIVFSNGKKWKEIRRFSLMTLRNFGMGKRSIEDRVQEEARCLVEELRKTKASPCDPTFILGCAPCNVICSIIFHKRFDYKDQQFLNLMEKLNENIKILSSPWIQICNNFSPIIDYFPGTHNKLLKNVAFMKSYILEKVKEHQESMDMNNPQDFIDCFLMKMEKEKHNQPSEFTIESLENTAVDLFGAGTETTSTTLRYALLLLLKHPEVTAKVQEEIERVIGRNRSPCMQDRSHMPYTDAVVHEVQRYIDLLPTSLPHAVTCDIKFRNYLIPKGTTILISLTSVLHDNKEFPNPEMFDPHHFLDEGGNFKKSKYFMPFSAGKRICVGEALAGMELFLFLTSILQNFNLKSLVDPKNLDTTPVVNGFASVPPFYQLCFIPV

CYP2C19, sequence (P33261 whole entry): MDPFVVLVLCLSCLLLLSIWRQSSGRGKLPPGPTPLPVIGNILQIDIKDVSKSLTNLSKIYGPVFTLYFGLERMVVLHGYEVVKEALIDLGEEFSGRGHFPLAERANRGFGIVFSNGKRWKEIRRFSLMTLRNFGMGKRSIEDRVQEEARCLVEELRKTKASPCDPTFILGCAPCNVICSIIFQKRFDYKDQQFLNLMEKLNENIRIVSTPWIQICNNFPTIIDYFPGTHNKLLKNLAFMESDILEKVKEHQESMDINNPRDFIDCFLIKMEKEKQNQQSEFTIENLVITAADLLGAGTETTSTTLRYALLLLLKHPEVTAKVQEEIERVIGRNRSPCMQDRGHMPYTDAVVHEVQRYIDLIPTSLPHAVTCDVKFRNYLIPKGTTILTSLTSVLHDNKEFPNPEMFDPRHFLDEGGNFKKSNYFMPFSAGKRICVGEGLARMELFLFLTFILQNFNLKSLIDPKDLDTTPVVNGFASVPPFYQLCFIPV
CYP3A4, sequence (P08684 whole entry): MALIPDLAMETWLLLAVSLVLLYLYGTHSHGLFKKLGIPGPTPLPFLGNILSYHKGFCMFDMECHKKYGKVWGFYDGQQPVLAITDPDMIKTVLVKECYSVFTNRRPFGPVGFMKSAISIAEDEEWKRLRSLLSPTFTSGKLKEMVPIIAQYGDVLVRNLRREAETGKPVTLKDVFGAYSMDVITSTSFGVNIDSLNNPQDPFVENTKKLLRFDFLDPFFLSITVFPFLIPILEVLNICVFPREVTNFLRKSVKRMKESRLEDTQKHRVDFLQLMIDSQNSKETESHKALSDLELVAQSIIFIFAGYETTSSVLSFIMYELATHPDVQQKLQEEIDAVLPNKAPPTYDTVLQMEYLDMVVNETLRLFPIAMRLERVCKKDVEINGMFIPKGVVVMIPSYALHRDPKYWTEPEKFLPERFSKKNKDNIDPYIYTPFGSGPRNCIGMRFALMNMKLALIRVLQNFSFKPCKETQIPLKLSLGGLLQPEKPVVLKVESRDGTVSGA

CC(=O)[O][Pt]([NH2])([NH2])([Cl])([Cl])[O]C(=O)NCCCCCN1C(=O)C=CC1=O [Compound 8]
IC50 [1]: 1960 nM
MTD [2]: 10 mg/kg
Decrease in body weight ([3]; 12 mg/kg animals): exceeded 10%
Chemistry, coagulation, or urinalysis parameters ([3]; 3, 6, 10, 12 mg/kg): no definitive effects
Hematology parameters ([3]; both sexes, all groups (3, 6, 10, 12 mg/kg)): decreases in reticulocytes, red cell mass, neutrophils and platelets
MTD ([3]; single IV dose, dog, corresponds to 10 mg/kg): 200 mg/m^2 and 205 (MTD) mg/m^2
Mortality and treatment-related clinical observations ([3]; up to 12 mg/kg (240 mg/m^2)): no mortalities or treatment related clinical observations; also recorded: no mortalities
Protein bound [4]: > 99%
Protein bound [5]: > 99%
IC50 [6]: 2720 nM
Body weights (decreased relative to vehicle) ([7]; Compound 8 9 mg/kg): transiently through Day 7
Local tolerance: microscopic evaluation of the last injection site ([7]; Compound 8 19 mg/kg, terminal males and females): slightly increased incidence and/or severity of perivascular subacute/chronic inflammation and/or hemorrhage
Changes attributable to altered renal function ([7]; Compound 8 9, 14, 19 mg/kg): noted in both sexes at all Compound 8 dose levels
Deaths, clinical observations, functional observation battery (FOB), ophthalmic examinations ([7]; Compound 8 9, 14, 19 mg/kg): no deaths and no effects were noted
Clinical Chemistry (moderate to marked) ([7]; Compound 8, 19 mg/kg): Creatinine↑, AST↑, ALT↑,; also recorded: Amylase↑, Lipase↑,; also recorded: Cholesterol↑ Globulin↑
Clinical observations, FOB and ophthalmic observations ([7]; Compound 8, 19 mg/kg): No adverse effects
Mortality ([7]; Compound 8, 19 mg/kg): No unscheduled deaths
Pathology: Kidneys (moderate or severe) ([7]; Compound 8, 19 mg/kg): Tubule degeneration/necrosis
Pathology: Organ weights ([7]; Compound 8, 19 mg/kg): Thymus↓
Pathology: Stomach nonglandular ([7]; Compound 8, 19 mg/kg): erosion ulcer (1M), no
Pathology: Testes ([7]; Compound 8, 19 mg/kg): Degeneration/atrophy (1M)
Pathology: Thymus ([7]; Compound 8, 19 mg/kg): (1M), (moderate at terminal,
Microscopic changes, kidney ([7]; rat, in vivo): kidney tubular degeneration/necrosis and/or regeneration
Organ weight changes ([7]; rat, in vivo, 14 mg/kg): decreased absolute and relative thymus weights in males and females
Increase in urea nitrogen ([7]; rat, in vivo, 19 mg/kg): +14%
Mean maximal BW loss [8]: 7.4%
solubility at 1 hr ([9]; overall estimate): ~9 mg/mL
solubility at 1 hr ([9]; range of five different lots): 8 to 23 mg/mL
solubility ([9]; pH 4.5, aqueous buffer, Saturated solubility of the drug substance): 16 to 17 mg/mL
Impurity 2 formation ([10]; 1 mg/ml in 5 mM citrate buffered saline pH 4, 24 hr): inhibits the formation of Impurity 2
Impurity 2 formation ([10]; 1 mg/ml in saline brought to pH 4 with hydrochloric acid, after 24 hrs): over 2 % by area
Amount of Impurity 1 ([11]; amber vial (dark)): ~0.75%
Amount of Impurity 1 ([11]; clear vial (light)): ~10%
Amount of Impurity 2 ([11]; clear vial (light)): 0.5%
Mean maximal BW loss [12]: 3.7%
Treatment-related adverse effects [12]: No treatment-related adverse effects
IC50 [13]: 950 nM
